Experiments:
[1] = rats, FDA data for Mirapex ER (pramipexole dihydrochloride), NDA 22-421; cited from earlier work
[2] = Solubility test in pure water, room temperature, HPLC; type: physicochemical; conditions: thermodynamic from solid, excess sample, shaken at room temperature for 15 h, filtered
Method: The samples were taken into pure water, and an excess amount of samples were added, which were then shaked at room temperature for 15 h, and filtered, and detected by HPLC. HPLC test conditions: mobile phase: sodium octanesulfonate-potassium dihydrogen phosphate buffer solution (5.0 g of sodium octanesulfonate and 9.1 g of potassium dihydrogen phosphate were taken, and added into 1000 ml of water for dissolution, and the pH was adjusted to 3.0 with phosphoric acid)-acetonitrile (72:28); The detection wavelength was 264 nm; The flow rate was 1.5 ml per minute; The column temperature was 40° C.; Injection volume: 10 μl; Chromatographic column: octadecyl silane bonded silica gel as filler (CAPCELL PAK MG II C18, 4.6 mm×250 mm, 5 μm).

**Q.** What does the source list for CCCN[C@H]1CCc2nc(N)sc2C1 [Compound of formula I, (S)-2-amino-4,5,6,7-tetrahydro-6-propylamine-benzothiazole]?
**A.** T1/2 [1]: 3.18 h; Tmax [1]: 0.5 h; solubility at 15 h [2]: 140 µg/mL
